Data on seven compounds can be found in PMC6479877, “Development of Chemical Tools to Monitor Human Kallikrein 13 (KLK13) Activity” (International Journal of Molecular Sciences, 2019).

The target in experiment [1] is T1, KLK13 (Homo sapiens, UniProt Q9UKR3).
T1 sequence (Q9UKR3 26-277 limits assumed): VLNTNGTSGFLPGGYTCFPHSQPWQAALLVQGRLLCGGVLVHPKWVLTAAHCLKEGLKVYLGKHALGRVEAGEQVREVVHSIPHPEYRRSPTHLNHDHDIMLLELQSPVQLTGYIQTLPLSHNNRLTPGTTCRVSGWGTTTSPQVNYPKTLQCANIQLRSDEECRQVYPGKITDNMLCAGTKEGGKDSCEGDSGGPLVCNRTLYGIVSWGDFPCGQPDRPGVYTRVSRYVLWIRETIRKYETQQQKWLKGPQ
As to the kind of experiment: Kinetic parameters of substrate hydrolysis by KLK13. It is filed as biochemical. More on the design: His6 (the forward primers encode HHHHHH followed by DDDDK; the protein was purified on nickel) (N); made in house; host or cells: Leishmania tarentolae strain T7-TR (LEXSY), secreted to the medium. The following applies: KLK13 1.25 × 10^−9 M; for Km / kcat: measured in triplicate, ± SD; for kcat/KM (specificity constant): calculated from kcat and KM. The method, then:
The specificity constant (kcat/KM) was calculated from kcat and KM. The details of kinetic studies and the method of calculating kinetic parameters have been described previously.

The test system of experiment [2] is KLK1, KLK2, KLK3, KLK4, KLK6, KLK8, KLK12. Nature of the experiment: Selectivity assessment of substrate 2: other kallikreins. The following applies: substrate 6.15 μM, enzymes 1.25 nM, 37 °C, 50 mM Tris-Cl pH 7.5, 1 mM EDTA, 0.5 μM heparin; fluorescence 450 nm. Format: biochemical. The method, then:
(§1) Substrate 2 (6.15 μM) was incubated with tested kallikreins (KLK1, KLK2, KLK3, KLK4, KLK6, KLK8, KLK12, KLK13) and cathepsins (CatX, CatL, CatS, CatD, CatH, CatB), all at a concentration of 1.25 nM, at 37 °C in 50 mM Tris-Cl (pH 7.5) buffer containing 1 mM EDTA and 0.5 μM heparin. Proteolytic activity was assayed as an increase in fluorescence at 450 nm.

Experiment [3] concerns cathepsins (CatX, CatL, CatS, CatD, CatH, CatB). As to the kind of experiment: Selectivity assessment of substrate 2: cathepsins. It is filed as biochemical. The following applies: substrate 6.15 μM, enzymes 1.25 nM, 37 °C, 50 mM Tris-Cl pH 7.5, 1 mM EDTA, 0.5 μM heparin; fluorescence 450 nm. As for the experimental part: as §1
For experiment [4], the target named is T1, KLK13. As to the kind of experiment: Detection limit of KLK13 activity with the substrates. Format: biochemical. Also on record: His6 (the forward primers encode HHHHHH followed by DDDDK; the protein was purified on nickel) (N); made in house; host or cells: Leishmania tarentolae strain T7-TR (LEXSY), secreted to the medium. To be noted: constant amount of substrate, decreasing KLK13; 50 mM Tris-Cl pH 7.5, 1 mM EDTA, 0.5 μM heparin, 37 °C. The method, then:
The detection limit was established by analyzing the correlation between an increase in absorbance/fluorescence and enzyme concentration at constant quantities of each, ABZ-Val-Arg-Phe-Arg-ANB-NH2 (Substrate 1) and ABZ-[…]3-NO2)-NH2 (Substrate 2).
Int. J. Mol. Sci. 2019, 20, x FOR PEER REVIEW 2 of 2
Figure S2. Detection limit and pH optimum of KLK13 as determined for the optimized substrates.
Substrates 1 (A) and 2 (B) were titrated with decreasing amounts of KLK13 in 50 mM Tris-Cl (pH 7.5) buffer containing 1 mM EDTA and 0.5 μM heparin at 37 °C. ( C) pH dependence of KLK13. Processing […]
of ABZ-[…]3-NO 2)-NH2 by KLK13 was monitored at pH range of 3 to 10 (citric acid/sodium citrate, sodium acetate/acetic acid, MES, MOPS, HEPES and TRIS buffers).
Reaction progress was monitored by fluorescence detection at the excitation and emission wavelength […]
(1 picture or pasted object on this page, not shown here)

Experiment [5] deals with T1, KLK13. As to the kind of experiment: Site of hydrolysis by RP-HPLC with fluorescence detection and MS. Format: biochemical. More on the design: His6 (the forward primers encode HHHHHH followed by DDDDK; the protein was purified on nickel) (N); made in house; host or cells: Leishmania tarentolae strain T7-TR (LEXSY), secreted to the medium. The following applies: RP-HPLC with fluorescence detection coupled to MS. As for the experimental part:
The site of hydrolysis was determined after each step of deconvolution of primed site library and for both final substrates (1 and 2) by RP-HPLC monitored by fluorescence detection and MS.

For experiment [6], the target named is T1, KLK13. As to the kind of experiment: pH dependence of KLK13 activity. Format: biochemical. To be noted: KLK13 1.25 nM, substrate 6.15 µM, 37 °C, buffers pH 3 to 10. More on the design: His6 (the forward primers encode HHHHHH followed by DDDDK; the protein was purified on nickel) (N); made in house; host or cells: Leishmania tarentolae strain T7-TR (LEXSY), secreted to the medium. As for the experimental part: The pH dependence of KLK13 (1.25 nM) was established at 37 °C using substrate 2 (6.15 µM) in following buffers: citric acid/sodium citrate (pH 3), sodium acetate/acetic acid (pH 4 and 5), MES (pH 6), MOPS (pH 7), HEPES (pH 8) and TRIS (pH 9 and 10).

Experiment [7] addresses T1, KLK13. As to the kind of experiment: Inhibitory activity of CMK inhibitors / activity-based probes against KLK13. It is filed as biochemical. Also on record: His6 (the forward primers encode HHHHHH followed by DDDDK; the protein was purified on nickel) (N); made in house. The following applies: progress curves method, irreversible inhibition, inhibitor 0–50 µM, Substrate 2 10 µM, KLK13 10 nM, 37 °C, pH 7.5, mean ± SD of three replicates. The method, then: The kinetic parameters of inhibition were determined using a progress curve model for irreversible inhibition, as described previously. […] Upon the addition of KLK13 (final concentration 10 nM), the fluorescence of the hydrolyzed substrate was monitored in each sample at excitation and emission wavelengths of 320 and 450 nm, respectively, for 1 h using a microplate reader Gemini EM (Molecular Devices, Berkshire, UK). The reactions were carried out in 200 µL of final volume of 50 mM Tris-Cl (pH 7.5) containing 1 mM EDTA and 0.5 μM heparin at 37 °C. Progress curves were fitted to the resulting data points and then kobs derived from each curve was plotted against inhibitor concentration. Final values of kass were calculated by linear regression and presented as mean ± SD of three independent replicates.

Experiment [8] addresses T1, KLK13. As to the kind of experiment: Detection of KLK13 using biotinylated ABPs (streptavidin-HRP Western blot). To be noted: 1 µM probe, TNET buffer, 1 h at 37 °C; twofold dilutions of KLK13 500 to 4 ng. More on the design: His6 (the forward primers encode HHHHHH followed by DDDDK; the protein was purified on nickel) (N); made in house; host or cells: Leishmania tarentolae strain T7-TR (LEXSY), secreted to the medium. It is filed as binding. As for the experimental part:
Purified active KLK13 (250 ng) was preincubated with increasing concentrations of Bt-PEG-VRFR-CMK or Bt-VRFR-CMK in TNET buffer (0.1 M Tris-HCl, 150 mM NaCl, 5 mM EDTA, 0.05% Tween-20, pH 7.5) for 1 h at 37 °C. Samples were analyzed by SDS-PAGE followed by wet electrotransfer onto a PVDF membrane (GE Healthcare). Membranes were blocked in 5% BSA in TBS buffer (50 mM Tris-HCl, 0.5 M NaCl, pH 7.5) with 0.1% Tween overnight, at 4 °C, followed by incubation with 1:10,000 diluted Streptavidin-HRP (Sigma Aldrich, S2438, Poznan, Poland) for 2 h at RT. After intensive washing with TBS buffer with 0.1% Tween, the signal was developed with Pierce ECL WB substrate (Thermo Fisher Scientific) and visualized manually using AGFA films (Agfa HealthCare, Mortsel, Belgium). To establish the detection limit, decreasing amounts of active KLK13 (ranging from 3.9-500 ng) were preincubated with 1 µM Bt-PEG-VRFR-CMK in TNET buffer for 1 h at 37 °C and visualized by streptavidin-HRP Western blot as described above.
(In general: A western blot detects proteins with antibodies after separation by electrophoresis.)

Where a SMILES comes first, the peptide text is derived from it. The star is where a group is joined. Biotin = O=C1N[C@H]2[C@H](CS[C@H]2CCCCC(=O)*)N1; AEA = NCCOCC(=O)O; CH2Cl = ClC*

In general, Km refers to the substrate concentration at which the rate is half of its maximum. For orientation: kcat means the number of substrate molecules converted per active site and unit of time at saturation. With “ABZ-VRFRSTE-Tyr(3-NO2)-NH2 [optimized substrate differing only at the P3′ position (Glu)]”, in experiment [1], the Michaelis-Menten constant (Km) was found to be 24.7 ± 5.8 µM, the kcat is 91.11 ± 11.61 s⁻¹ and the “kcat/KM (specificity constant)” value is listed as “(3.69 ± 0.40) ×10^6 M^−1·s^−1”.

In the case of “ABZ-Val-Arg-Phe-Arg-Ser-Thr-Gln-Tyr(3-NO2)-NH2 [Substrate 2, internally quenched fluorogenic KLK13 substrate spanning P4-P3′]”, the “Cleavage by other kallikreins relative to the activity of KLK13” value in experiment [2] was at most 20%. Further, the Hydrolysis by cathepsins result in experiment [3] is “None of tested cathepsins hydrolyzed”. For the same compound, the Km in experiment [1] stood at 10 ± 1.9 µM. The kcat in experiment [1] amounted to 96.43 ± 7.15 s⁻¹. The “kcat/KM (specificity constant)” value was “(9.64 ± 1.08) ×10^6 M^−1·s^−1” in experiment [1] (listed as ABZ-VRFRSTQ-Tyr(3-NO2)-NH2 (2)), “≈ 10^7 M^−1·s^−1” in experiment [1] (listed as ABZ-Val-Arg-Phe-Arg-Ser-Thr-Gln-Tyr(3-NO2)-NH2) and around 1e+07 M⁻¹ s⁻¹ in experiment [1] (listed as substrate 2). In addition, the “KLK13 concentration at which fluorescence increase was still detectable” value in experiment [4] turned out to be 48.8 pM. For the same compound, the “Site of hydrolysis by KLK13” value in experiment [5] is “exclusively hydrolyzed at the Arg-Ser peptide bond”. The “Optimal pH for processing of the substrate by KLK13” value in experiment [6] was 9.

With “ABZ-VRFRSTG-Tyr(3-NO2)-NH2 [optimized substrate differing only at the P3′ position (Gly)]”, in experiment [1], the Km turned out to be 19.7 ± 3 µM, the kcat turned out to be 169.40 ± 12.40 s⁻¹ and the “kcat/KM (specificity constant)” value is listed as “(8.62 ± 0.37) ×10^6 M^−1·s^−1”.

Turning to “ABZ-VRFRSTS-Tyr(3-NO2)-NH2 [optimized substrate differing only at the P3′ position (Ser)]”, in experiment [1], the Km came out at 14.7 ± 2.2 µM, the kcat stood at 113.12 ± 6.87 s⁻¹ and the “kcat/KM (specificity constant)” value was “(7.71 ± 0.67) ×10^6 M^−1·s^−1”.

Consider “ABZ-Val-Arg-Phe-Arg-ANB-NH2 [Substrate 1, kinetically preferred non-primed fluorogenic/chromogenic KLK13 substrate]”, for which, in experiment [1], the Km was found to be 17.8 ± 2.8 µM, the kcat came out at 94.36 ± 3.05 s⁻¹ and the “kcat/KM (specificity constant)” value is listed as “over 5 × 10^6 M^−1·s^−1”. Besides, the “kcat/KM (specificity constant)” value in experiment [1] (listed as ABZ-VRFR-ANB-NH2 (1)) is recorded as “(5.31 ± 0.34) ×10^6 M^−1·s^−1”. In addition, the “KLK13 concentration at which fluorescence increase was still detectable” value in experiment [4] worked out at 1560 pM.

`CC(C)[C@H](NC(=O)CCCC[C@@H]1SC[C@@H]2NC(=O)N[C@@H]21)C(=O)N[C@@H](CCCNC(=N)N)C(=O)N[C@@H](Cc1ccccc1)C(=O)N[C@@H](CCCNC(=N)N)C(=O)CCl` [Bt-VRFR-CMK, Bt-Val-Arg-Phe-Arg-CMK] (Biotin-VRFR-CH2Cl) returned a kass in experiment [7] of 49 ± 2 M⁻¹ s⁻¹.

Regarding `CC(C)[C@H](NC(=O)COCCNC(=O)CCCC[C@@H]1SC[C@@H]2NC(=O)N[C@@H]21)C(=O)N[C@@H](CCCNC(=N)N)C(=O)N[C@@H](Cc1ccccc1)C(=O)N[C@@H](CCCNC(=N)N)C(=O)CCl` [Bt-PEG-VRFR-CMK, Bt-PEG-Val-Arg-Phe-Arg-CMK] ({Biotin-AEA}-VRFR-CH2Cl), the kass in experiment [7] came out at 204 ± 23 M⁻¹ s⁻¹. The “Detection limit of purified KLK13 in Western blot” value in experiment [8] is around 15 ng.
